Measurements: patent US8163732B2, “Tricyclic heteroaryl compounds useful as inhibitors of Janus kinase” (Vertex Pharmaceuticals Incorporated, priority 2005, dated 2012)

Columns and labels:
JAK-2 = JAK-2 (Homo sapiens, UniProt O60674); test: JAK-2 inhibition assay; format: biochemical
JAK-3 = biological target: T1, JAK-3 (Homo sapiens, UniProt P52333); test: JAK-3 inhibition assay; format: biochemical
T1 sequence (P52333 1-1124): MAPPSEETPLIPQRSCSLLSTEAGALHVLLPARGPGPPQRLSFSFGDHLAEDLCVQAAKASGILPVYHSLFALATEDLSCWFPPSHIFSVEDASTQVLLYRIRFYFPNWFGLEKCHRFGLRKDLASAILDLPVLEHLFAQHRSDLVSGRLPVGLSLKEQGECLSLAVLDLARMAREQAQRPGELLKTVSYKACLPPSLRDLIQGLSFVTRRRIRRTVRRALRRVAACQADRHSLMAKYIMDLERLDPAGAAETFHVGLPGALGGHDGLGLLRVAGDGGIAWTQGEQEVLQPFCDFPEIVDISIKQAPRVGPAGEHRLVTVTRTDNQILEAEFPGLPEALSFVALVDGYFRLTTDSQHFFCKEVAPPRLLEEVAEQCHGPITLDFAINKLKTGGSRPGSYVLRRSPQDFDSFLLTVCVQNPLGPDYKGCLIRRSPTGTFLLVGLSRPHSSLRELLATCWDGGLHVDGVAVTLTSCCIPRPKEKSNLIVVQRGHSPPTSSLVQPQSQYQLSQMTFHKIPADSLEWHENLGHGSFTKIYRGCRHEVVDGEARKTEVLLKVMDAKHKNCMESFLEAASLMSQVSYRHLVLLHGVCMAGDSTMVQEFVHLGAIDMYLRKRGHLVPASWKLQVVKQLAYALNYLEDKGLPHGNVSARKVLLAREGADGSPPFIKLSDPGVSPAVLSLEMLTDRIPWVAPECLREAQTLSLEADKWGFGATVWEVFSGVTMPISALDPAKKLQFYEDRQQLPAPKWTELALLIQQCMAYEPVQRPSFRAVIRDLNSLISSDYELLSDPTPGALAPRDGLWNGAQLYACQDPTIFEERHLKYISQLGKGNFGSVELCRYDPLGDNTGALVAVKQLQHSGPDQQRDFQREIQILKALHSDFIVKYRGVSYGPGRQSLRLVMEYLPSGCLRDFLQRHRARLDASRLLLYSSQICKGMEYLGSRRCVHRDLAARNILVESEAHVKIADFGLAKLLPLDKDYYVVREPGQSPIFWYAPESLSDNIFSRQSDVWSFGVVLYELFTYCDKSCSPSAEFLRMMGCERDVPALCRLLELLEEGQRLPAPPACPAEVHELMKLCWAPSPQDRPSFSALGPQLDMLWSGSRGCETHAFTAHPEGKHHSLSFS
Experimental: Compounds were screened for their ability to inhibit JAK using the assay shown below. Reactions were carried out in a kinase buffer containing 100 mM HEPES (pH 7.4), 1 mM DTT, 10 mM MgCl2, 25 mM NaCl, and 0.01% BSA.
Substrate concentrations in the assay were 5 μM ATP (200 μCi/μmole ATP) and 1 μM poly(Glu)4Tyr. Reactions were carried out at 25° C. and 1 nM JAK-3.
To each well of a 96 well polycarbonate plate was added 1.5 μL of a candidate JAK-3 inhibitor along with 50 μL of kinase buffer containing 2 μM poly(Glu)4Tyr and 10 μM ATP. This was then mixed and 50 μL of kinase buffer containing 2 nM JAK-3 enzyme was added to start the reaction. After 20 minutes at room temperature (25° C.), the reaction was stopped with 50 μL of 20% trichloroacetic acid (TCA) that also contained 0.4 mM ATP. The entire contents of each well were then transferred to a 96 well glass fiber filter plate using a TomTek Cell Harvester. After washing, 60 μL of scintillation fluid was added and ^33P incorporation detected on a Perkin Elmer TopCount. After removing the mean background values for all of the data points, the data were fit using Prism software to obtain a Ki value (app).

Sequence of JAK-2 (O60674 whole entry): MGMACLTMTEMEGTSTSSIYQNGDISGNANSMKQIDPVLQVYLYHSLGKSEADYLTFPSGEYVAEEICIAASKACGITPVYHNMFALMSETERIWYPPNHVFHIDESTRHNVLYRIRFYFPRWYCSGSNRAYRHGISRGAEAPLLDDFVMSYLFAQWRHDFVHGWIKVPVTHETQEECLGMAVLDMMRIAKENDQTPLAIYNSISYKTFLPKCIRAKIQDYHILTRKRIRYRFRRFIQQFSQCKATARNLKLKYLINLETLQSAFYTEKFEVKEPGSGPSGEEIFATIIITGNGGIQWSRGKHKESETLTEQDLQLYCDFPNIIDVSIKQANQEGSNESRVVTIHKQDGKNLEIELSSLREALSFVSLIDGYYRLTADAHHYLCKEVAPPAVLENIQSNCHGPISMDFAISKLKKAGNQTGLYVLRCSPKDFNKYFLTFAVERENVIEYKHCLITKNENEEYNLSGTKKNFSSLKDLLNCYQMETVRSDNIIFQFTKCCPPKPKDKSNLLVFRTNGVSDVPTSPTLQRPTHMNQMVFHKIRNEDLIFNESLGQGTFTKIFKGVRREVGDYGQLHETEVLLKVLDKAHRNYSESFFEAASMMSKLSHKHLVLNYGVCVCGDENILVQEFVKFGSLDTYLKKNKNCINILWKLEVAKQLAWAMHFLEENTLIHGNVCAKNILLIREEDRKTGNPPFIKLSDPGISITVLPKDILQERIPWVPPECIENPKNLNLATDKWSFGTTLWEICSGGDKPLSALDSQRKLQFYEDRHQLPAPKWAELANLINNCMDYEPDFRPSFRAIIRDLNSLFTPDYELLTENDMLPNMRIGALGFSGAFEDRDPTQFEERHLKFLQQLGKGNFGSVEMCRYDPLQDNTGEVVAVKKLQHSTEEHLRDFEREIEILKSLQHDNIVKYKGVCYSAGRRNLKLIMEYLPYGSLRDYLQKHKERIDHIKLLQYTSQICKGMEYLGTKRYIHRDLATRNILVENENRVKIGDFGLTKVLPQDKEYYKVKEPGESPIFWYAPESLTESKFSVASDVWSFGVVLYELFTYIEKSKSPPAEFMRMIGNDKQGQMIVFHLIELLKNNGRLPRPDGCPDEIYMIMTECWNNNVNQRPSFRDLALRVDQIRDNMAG

Ki (JAK-2) [µM] | Ki (JAK-3) [µM] | Structure (SMILES)
0.25 to 2.5 | 0.25 to 2.5 | CC1=Nc2ccccc2-c2ccnc3[nH]cc1c23 [Compound 51]
< 0.25 | ≤ 0.25 | O=C1Nc2ccccc2-c2ccnc3[nH]cc(c23)C1c1ccc(O)c(F)c1 (centres unmarked) [Compound 150]
< 0.25 | ≤ 0.25 | Cc1cc(C2Nc3ccccc3-c3ccnc4[nH]cc2c34)ccc1O (centres unmarked) [Compound 140]
< 0.25 | ≤ 0.25 | Cc1cc(C2Nc3ccccc3-c3ncnc4[nH]cc2c34)ccc1O (centres unmarked) [Compound 83]
< 0.25 | ≤ 0.25 | O=[N+]([O-])c1cc(O)ccc1C1Nc2ccccc2-c2ccnc3[nH]cc1c23 (centres unmarked) [Compound 71]
0.25 to 2.5 | > 2.5 | OCCCC1Nc2ccccc2-c2ccnc3[nH]cc1c23 (centres unmarked) [Compound 60]
< 0.25 | 0.25 to 2.5 | Fc1cccc(C2Nc3ccccc3-c3ccnc4[nH]cc2c34)c1F (centres unmarked) [Compound 25]
> 2.5 | > 2.5 | O=C(O)c1cc(C2Nc3ccccc3-c3ccnc4[nH]cc2c34)ccc1O (centres unmarked) [Compound 110]
< 0.25 | ≤ 0.25 | COc1ccc(C2Nc3ccccc3-c3ccnc4[nH]cc2c34)cc1 (centres unmarked) [Compound 135]
< 0.25 | ≤ 0.25 | Oc1ccc(C2=Nc3ccccc3-c3ccnc4[nH]cc2c34)c(Cl)c1 [Compound 63]
0.25 to 2.5 | 0.25 to 2.5 | Oc1c(Br)cc(C2Nc3ccccc3-c3ccnc4[nH]cc2c34)cc1Br (centres unmarked) [Compound 78]
> 2.5 | 0.25 to 2.5 | COC(=O)Nc1ccc(C2c3c[nH]c4nccc(c34)-c3ccccc3N2C(=O)OC)cc1 (centres unmarked) [Compound 100]
< 0.25 | ≤ 0.25 | Cn1cc2c3c(ncnc31)-c1ccccc1NC2c1ccc(O)c(F)c1 (centres unmarked) [Compound 117]
0.25 to 2.5 | > 2.5 | Clc1cccc(C2Nc3ccccc3-c3ccnc4[nH]cc2c34)c1Cl (centres unmarked) [Compound 41]
< 0.25 | ≤ 0.25 | Fc1ccc(F)c(C2Nc3ccccc3-c3ccnc4[nH]cc2c34)c1 (centres unmarked) [Compound 27]
< 0.25 | ≤ 0.25 | CN1C(=O)C(c2ccc(O)cc2)c2c[nH]c3ncnc(c23)-c2ccccc21 (centres unmarked) [Compound 159]
> 2.5 | > 2.5 | FC(F)(F)c1ccc(C2Nc3ccccc3-c3ccnc4[nH]cc2c34)cc1 (centres unmarked) [Compound 136]
< 0.25 | ≤ 0.25 | COc1cc(C2Nc3ccccc3-c3ccnc4[nH]cc2c34)c(Br)cc1O (centres unmarked) [Compound 76]
< 0.25 | 0.25 to 2.5 | Clc1ccccc1COc1cccc(C2Nc3ccccc3-c3ccnc4[nH]cc2c34)c1 (centres unmarked) [Compound 131]
0.25 to 2.5 | 0.25 to 2.5 | Clc1cccc(Cl)c1C1Nc2ccccc2-c2ccnc3[nH]cc1c23 (centres unmarked) [Compound 42]

The next lines start with the compound.

Structure (SMILES) | Ki (JAK-2) [µM] | Ki (JAK-3) [µM]
COC(=O)C1(c2ccc(N)cc2)Nc2ccccc2-c2ccnc3[nH]cc1c23 (centres unmarked) [Compound 102] | > 2.5 | > 2.5
Oc1ccc(C2=Nc3ccccc3-c3ccnc4[nH]cc2c34)cc1OC(F)(F)F [Compound 113] | < 0.25 | ≤ 0.25
Fc1ccccc1C1Nc2ccccc2-c2ccnc3[nH]cc1c23 (centres unmarked) [Compound 7] | < 0.25 | 0.25 to 2.5
Cc1ccc(C2C(=O)Nc3ccccc3-c3ncnc4[nH]cc2c34)cc1 (centres unmarked) [Compound 161] | < 0.25 | 0.25 to 2.5
Oc1ccc(C2Nc3ccccc3-c3ncnc4[nH]cc2c34)cc1Br (centres unmarked) [Compound 82] | < 0.25 | ≤ 0.25
Oc1cccc(C2Nc3ccccc3-c3ccnc4[nH]cc2c34)c1O (centres unmarked) [Compound 69] | < 0.25 | ≤ 0.25
Fc1cc(C2Nc3ccccc3-c3ccnc4[nH]cc2c34)ccc1Cl (centres unmarked) [Compound 39] | < 0.25 | 0.25 to 2.5
Fc1ccc(C2Nc3ccccc3-c3ccnc4[nH]cc2c34)cc1 (centres unmarked) [Compound 12] | 0.25 to 2.5 | 0.25 to 2.5
c1ccc(-c2onc3ccc(C4Nc5ccccc5-c5ccnc6[nH]cc4c56)cc23)cc1 (centres unmarked) [Compound 143] | > 2.5 | > 2.5
O=C1Nc2ccccc2-c2ncnc3[nH]cc(c23)C1c1ccc(O)c(F)c1 (centres unmarked) [Compound 160] | < 0.25 | ≤ 0.25
COc1ccc(C2NC(=O)c3ccccc3-c3ccnc4[nH]cc2c34)cc1 (centres unmarked) [Compound 126] | > 2.5 | > 2.5
COc1ccc(C2NC(=O)c3ccccc3-c3ccnc4[nH]cc2c34)cc1C (centres unmarked) [Compound 129] | > 2.5 | > 2.5
COc1cc(C2Nc3ccccc3-c3ncnc4[nH]cc2c34)cc(OC)c1O (centres unmarked) [Compound 85] | 0.25 to 2.5 | 0.25 to 2.5
COc1ccc(C2Nc3ccccc3-c3ccnc4[nH]cc2c34)cc1F (centres unmarked) [Compound 45] | < 0.25 | 0.25 to 2.5
Oc1ccccc1C1Nc2ccccc2-c2ccnc3[nH]cc1c23 (centres unmarked) [Compound 20] | 0.25 to 2.5 | 0.25 to 2.5
COc1cc(C2Nc3ccccc3-c3ncnc4[nH]cc2c34)ccc1O (centres unmarked) [Compound 84] | < 0.25 | ≤ 0.25
Oc1c(F)cc(C2Nc3ccccc3-c3ccnc4[nH]cc2c34)cc1F (centres unmarked) [Compound 106] | < 0.25 | ≤ 0.25
Oc1c(Cl)cc(C2Nc3ccccc3-c3ccnc4[nH]cc2c34)cc1Cl (centres unmarked) [Compound 67] | < 0.25 | ≤ 0.25
FC(F)(F)Oc1ccc(C2Nc3ccccc3-c3ccnc4[nH]cc2c34)cc1 (centres unmarked) [Compound 134] | 0.25 to 2.5 | 0.25 to 2.5
Oc1ccc(C2Nc3ncccc3-c3ccnc4[nH]cc2c34)c(Cl)c1 (centres unmarked) [Compound 57] | < 0.25 | ≤ 0.25
